Laboratory results taken from ChEMBL document CHEMBL5543109, “Novel β-Hairpin Antimicrobial Peptide Containing the β-Turn Sequence of -NG- and the Tryptophan Zippers Facilitate Self-Assembly into Nanofibers, Exhibiting Excellent Antimicrobial Performance” (J Med Chem, 2024).
≈ marks a conversion by molar mass, not a printed value. Calls of active or inactive are those of the source. The calls are words filed in the database; no cut-off is given here.

What was measured:
[1] = Elimination half life in Sprague-Dawley rat at 1 mg/kg, iv measured upto 120 mins by LC-MS analysis; assay type: ADME, organism-based; settings: in vivo, read-out: beta t1/2
[2] = tested on: Escherichia coli; assay: Antibacterial activity against Escherichia coli ATCC 25922 incubated for 18 hrs by broth microdilution method; assay type: functional
[3] = tested on: Pseudomonas aeruginosa; assay: Antibacterial activity against Pseudomonas aeruginosa ATCC 27853 incubated for 18 hrs by broth microdilution method; assay type: functional
[4] = tested on: Pseudomonas aeruginosa; assay: Bactericidal activity against Pseudomonas aeruginosa ATCC 27853 incubated for 18 hrs by broth microdilution method; assay type: functional
[5] = tested on: Erythrocyte; assay: Hemolytic activity in mouse erythrocytes assessed as concentration required to cause 10% hemolysis incubated for 1 hr; assay type: toxicity, cell-based
[6] = tested on: Pseudomonas aeruginosa; assay: Antibacterial activity against Pseudomonas aeruginosa incubated for 18 hrs in presence of KCl by broth microdilution method; assay type: functional, organism-based
[7] = tested on: Staphylococcus aureus; assay: Antibacterial activity against Staphylococcus aureus incubated for 18 hrs in presence of KCl by broth microdilution method; assay type: functional, organism-based
[8] = tested on: Cell membrane; assay: Induction of outer membrane permeabilization in Escherichia coli at 4 times MIC measured immediately by NPN-dye based assay; assay type: cell membranes
[9] = tested on: Cell membrane; assay: Induction of cell membrane disruption in Escherichia coli assessed as PI uptake incubated for 2 hrs by PI staining based confocal laser scanning microscopy; assay type: cell membranes
[10] = tested on: Cell membrane; assay: Induction of cell membrane disruption in Escherichia coli assessed as PI uptake at 4 times MIC incubated for 2 hrs by PI staining based flow cytometry analysis (reference value: 11.9%); assay type: cell membranes
[11] = tested on: Cell membrane; assay: Induction of cell membrane disruption in Staphylococcus aureus assessed as PI uptake at 2 times MIC incubated for 2 hrs by PI staining based flow cytometry analysis (reference value: 15.9%); assay type: cell membranes
[12] = tested on: Staphylococcus aureus; assay: Additive antibacterial activity against methicillin resistant Staphylococcus aureus 75 assessed as fractional inhibitory concentration index incubated for 18 hrs in presence of ciprofloxacin by checkerboard assay; assay type: functional
[13] = tested on: Escherichia coli; assay: Synergistic antibacterial activity against Escherichia coli assessed as fractional inhibitory concentration index incubated for 18 hrs in presence of rifampin by checkerboard assay; assay type: functional
[14] = tested on: Klebsiella pneumoniae; assay: Synergistic antibacterial activity against Klebsiella pneumoniae assessed as fractional inhibitory concentration index incubated for 18 hrs in presence of rifampin by checkerboard assay; assay type: functional
[15] = tested on: Staphylococcus aureus; assay: Synergistic antibacterial activity against methicillin resistant Staphylococcus aureus assessed as fractional inhibitory concentration index incubated for 18 hrs in presence of rifampin by checkerboard assay; assay type: functional
[16] = tested on: Staphylococcus aureus; assay: Synergistic antibacterial activity against rifampicin resistant Staphylococcus aureus assessed as fractional inhibitory concentration index incubated for 18 hrs in presence of rifampin by checkerboard assay; assay type: functional
[17] = tested on: Escherichia coli; assay: Additive antibacterial activity against rifampicin resistant Escherichia coli assessed as fractional inhibitory concentration index incubated for 18 hrs in presence of rifampin by checkerboard assay; assay type: functional
[18] = tested on: Escherichia coli; assay: Additive antibacterial activity against Escherichia coli assessed as fractional inhibitory concentration index incubated for 18 hrs in presence of kanamycin by checkerboard assay; assay type: functional
[19] = tested on: Staphylococcus aureus; assay: Synergistic antibacterial activity against methicillin resistant Staphylococcus aureus assessed as fractional inhibitory concentration index incubated for 18 hrs in presence of kanamycin by checkerboard assay; assay type: functional
[20] = tested on: Staphylococcus aureus; assay: Synergistic antibacterial activity against methicillin resistant Staphylococcus aureus assessed as fractional inhibitory concentration index incubated for 18 hrs in presence of streptomycin by checkerboard assay; assay type: functional
[21] = tested on: Staphylococcus aureus; assay: Additive antibacterial activity against methicillin resistant Staphylococcus aureus 113 assessed as fractional inhibitory concentration index incubated for 18 hrs in presence of streptomycin by checkerboard assay; assay type: functional
[22] = tested on: Staphylococcus aureus; assay: Additive antibacterial activity against Staphylococcus aureus 794 assessed as fractional inhibitory concentration index incubated for 18 hrs in presence of streptomycin by checkerboard assay; assay type: functional
[23] = tested on: Staphylococcus aureus; assay: Additive antibacterial activity against Staphylococcus aureus 125 assessed as fractional inhibitory concentration index incubated for 18 hrs in presence of streptomycin by checkerboard assay; assay type: functional
[24] = tested on: Staphylococcus aureus; assay: Additive antibacterial activity against Staphylococcus aureus 125 assessed as fractional inhibitory concentration index incubated for 18 hrs in presence of gentamycin by checkerboard assay; assay type: functional
[25] = tested on: Staphylococcus aureus; assay: Synergistic antibacterial activity against Staphylococcus aureus 125 assessed as fractional inhibitory concentration index incubated for 18 hrs in presence of bacitracin by checkerboard assay; assay type: functional
[26] = tested on: Pseudomonas aeruginosa; assay: Synergistic antibacterial activity against Pseudomonas aeruginosa assessed as fractional inhibitory concentration index incubated for 18 hrs in presence of polymyxin B by checkerboard assay; assay type: functional
[27] = Acute toxicity in mouse assessed as mortality rate at 200 mg/kg, ip by karber method; assay type: organism-based; settings: in vivo, read-out: Activity
[28] = Acute toxicity in mouse assessed as mortality rate at 300 mg/kg, ip by karber method; assay type: organism-based; settings: in vivo, read-out: Activity
[29] = Acute toxicity in mouse assessed as hepatocyte necrosis at 230.5 mg/kg, ip by H and E staining based assay; assay type: organism-based; settings: hepatocytes
[30] = Acute toxicity in mouse assessed as renal cell necrosis at 230.5 mg/kg, ip by H and E staining based assay; assay type: organism-based; settings: in vivo
[31] = tested on: Escherichia coli; assay: Antibacterial activity against Escherichia coli infected in BALB/c mouse systemic infection model assessed as reduction in lung bacterial load at 5 to 10 mg/kg, ip measured after 24 hrs; assay type: functional, organism-based; settings: dose 5-10 mg/kg
[32] = tested on: Staphylococcus aureus; assay: Antibacterial activity against Staphylococcus aureus ATCC 25923 infected in BALB/c mouse skin wound infection model assessed as reduction in wound bacterial load at 1 mg/ml, ip administered at 1 hr interval for total 6 treatment and measured after 1 hr post last dose; assay type: functional, organism-based; settings: time 7.0 hrs
[33] = tested on: Staphylococcus aureus; assay: Antibacterial activity against Staphylococcus aureus 794 infected in BALB/c mouse skin wound infection model assessed as reduction in wound bacterial load at 1 mg/ml, ip administered at 1 hr interval for total 6 treatment and measured after 1 hr post last dose; assay type: functional, organism-based; settings: time 7.0 hrs
[34] = tested on: Staphylococcus aureus; assay: Antibacterial activity against Staphylococcus aureus 794 infected in BALB/c mouse skin wound infection model assessed as reduction in TNFalpha level at 1 mg/ml, ip pre-infected with bacteria for 24 hrs followed by compound addition and measured after 13 days post infection; assay type: functional, organism-based; settings: time 12.0 day
[35] = tested on: Staphylococcus aureus; assay: Antibacterial activity against Staphylococcus aureus 794 infected in BALB/c mouse skin wound infection model assessed as reduction in TNFalpha level at 1 mg/ml, ip pre-infected with bacteria for 24 hrs followed by compound addition and measured after 13 days post infection in presence of vancomycin; assay type: functional, organism-based; settings: time 12.0 day
[36] = tested on: Staphylococcus aureus; assay: Antibacterial activity against Staphylococcus aureus 794 infected in BALB/c mouse skin wound infection model assessed as wound healing at 1 mg/ml, ip pre-infected with bacteria for 24 hrs followed by compound addition and measured on day 4; assay type: functional, organism-based; settings: time 4.0 day
[37] = Toxicity in BALB/c mouse infected with Staphylococcus aureus 794 assessed as increase in hair follicles at 1 mg/ml, ip pre-infected with bacteria for 24 hrs followed by compound addition and measured after 13 days by H and E staining based histopathological analysis; assay type: organism-based; settings: in vivo, 312 h, time 13 day
[38] = tested on: Staphylococcus aureus; assay: Antibacterial activity against methicillin resistant Staphylococcus aureus incubated for 18 hrs by broth microdilution method; assay type: functional
[39] = tested on: Staphylococcus aureus; assay: Antibacterial activity against Staphylococcus aureus S794 incubated for 18 hrs by broth microdilution method; assay type: functional
[40] = tested on: Staphylococcus aureus; assay: Antibacterial activity against Staphylococcus aureus incubated for 18 hrs by broth microdilution method; assay type: functional

## NCCCC[C@@H](NC(=O)[C@H](N)Cc1c[nH]c2ccccc12)C(=O)N[C@H](Cc1c[nH]c2ccccc12)C(=O)N[C@H](CCCCN)C(=O)N[C@H](Cc1c[nH]c2ccccc12)C(=O)N[C@@H](CC(N)=O)C(=O)NCC(=O)N[C@H](Cc1c[nH]c2ccccc12)C(=O)N[C@H](CCCCN)C(=O)N[C@H](Cc1c[nH]c2ccccc12)C(=O)N[C@H](CCCCN)C(=O)N[C@H](Cc1c[nH]c2ccccc12)C(N)=O
[1]
  half-life: 11.4 min
[2]
  MIC: 8 µM (≈ 14.5 µg/mL)
[3]
  MIC: 4 µM (≈ 7.27 µg/mL)
[4]
  MBC: 32 µM (≈ 58.2 µg/mL)
[5]
  MHC: > 512 µM
[6]
  Activity: Active
[7]
  Activity: Active
[8]
  Activity: 100%
[9]
  Activity: Dose-Dependent Effect
[10]
  Activity: 92.8%
[11]
  Activity: 96.6%
[12]
  fractional inhibitory concentration index (FICI): 0.563
[13]
  fractional inhibitory concentration index (FICI): 0.375
[14]
  fractional inhibitory concentration index (FICI): 0.5
[15]
  fractional inhibitory concentration index (FICI): 0.313
[16]
  fractional inhibitory concentration index (FICI): 0.375
[17]
  fractional inhibitory concentration index (FICI): 0.563
[18]
  fractional inhibitory concentration index (FICI): 0.563
[19]
  fractional inhibitory concentration index (FICI): 0.313
[20]
  fractional inhibitory concentration index (FICI): 0.5
[21]
  fractional inhibitory concentration index (FICI): 0.563
[22]
  fractional inhibitory concentration index (FICI): 0.625
[23]
  fractional inhibitory concentration index (FICI): 1
[24]
  fractional inhibitory concentration index (FICI): 0.563
[25]
  fractional inhibitory concentration index (FICI): 0.5
[26]
  fractional inhibitory concentration index (FICI): 0.188
[27]
  mortality: 20%
[28]
  mortality: 100%
[29]
  Activity: Toxic
[30]
  Activity: Toxic
[31]
  Activity: Active
[32]
  Activity: Active
[33]
  Activity: Active
[34]
  Activity: Active
[35]
  Activity: Active
[36]
  Activity: inactive
[37]
  Activity: Toxic
[38]
  MIC: 8 µM (≈ 14.5 µg/mL)
[39]
  MIC: 8 µM (≈ 14.5 µg/mL)
[40]
  MIC: 4 µM (≈ 7.27 µg/mL)
